Measurements taken from patent US8969248B2, “5-iodotriazole derivatives” (Bayer Intellectual Property GmbH, priority 2010, dated 2015).

How the values were obtained:
Type in all cases: in vivo
[1] = system: Pyrenophora teres; assay: Pyrenophora teres test (barley)/protective; conditions: protective spray, 500 ppm, evaluation 8 days after inoculation
Description: (§1) [table] To produce an appropriate active ingredient formulation, 1 part by weight of active ingredient is mixed with the specified amounts of solvent and emulsifier, and the concentrate is diluted with water to the desired concentration. To test for protective activity, young plants are sprayed with the active ingredient formulation at the stated application rate. After the spray coating has dried on, the plants are sprayed with a spore suspension of Pyrenophora teres.

[2] = system: Leptosphaeria nodorum; assay: Leptosphaeria nodorum test (wheat)/protective; conditions: protective spray, 500 ppm, evaluation 8 days after inoculation
Description: as §1, with “sprayed with spores with a spore” for “sprayed with a spore”, “suspension of Leptosphaeria nodorum.” for “suspension of Pyrenophora teres.”

[3] = system: Septoria tritici; assay: Septoria tritici test (wheat)/protective; conditions: protective spray, 500 ppm, evaluation 21 days after inoculation
[4] = system: Uromyces appendiculatus; assay: Uromyces test (bean)/protective; conditions: protective spray, 100 ppm, evaluation 10 days after inoculation
Description: (§2) [table] To produce an appropriate active ingredient formulation, 1 part by weight of active ingredient is mixed with the specified amounts of solvent and emulsifier, and the concentrate is diluted with water to the desired concentration. To test for protective activity, young plants are sprayed with the active ingredient formulation at the stated application rate. […] The plants are then placed in a greenhouse at approx. 21° C. and a relative air humidity of approx. 90%.

[5] = system: Venturia inaequalis; assay: Venturia test (apple)/protective; conditions: protective spray, 100 ppm, evaluation 10 days after inoculation
Description: as §2

[6] = system: Sphaerotheca fuliginea; assay: Sphaerotheca test (cucumber)/protective; conditions: protective spray, 500 ppm, evaluation 7 days after inoculation
Description: [table] To produce an appropriate active ingredient formulation, 1 part by weight of active ingredient is mixed with the specified amounts of solvent and emulsifier, and the concentrate is diluted with water to the desired concentration. To test for protective activity, young cucumber plants are sprayed with the active ingredient formulation at the stated application rate. 1 day after the treatment, the plants are inoculated with a spore suspension of Sphaerotheca fuliginea. The plants are then placed in a greenhouse at 70% relative air humidity and a temperature of 23° C.

[7] = system: Blumeria graminis f. sp. hordei; assay: Blumeria graminis test (barley)/protective; conditions: protective spray, 500 ppm, evaluation 7 days after inoculation
Description: [table] To produce an appropriate active ingredient formulation, 1 part by weight of active ingredient is mixed with the specified amounts of solvent and emulsifier, and the concentrate is diluted with water to the desired concentration. To test for protective activity, young plants are sprayed with the active ingredient formulation at the stated application rate. After the spray coating has dried on, the plants are dusted with spores of Blumeria graminis f. sp. hordei.

[8] = system: Puccinia recondita; assay: Puccinia test (wheat)/protective; conditions: protective spray, 500 ppm, evaluation 7-9 days after inoculation
[9] = system: Botrytis cinerea; assay: Botrytis test (bean)/protective; conditions: protective spray, 250 ppm, evaluation 2 days after inoculation
Description: as §1, with “2 small pieces of agar colonized by Botrytis cinerea” for “the plants”, “placed onto each leaf.” for “sprayed with a spore suspension of Pyrenophora teres.”

[10] = system: Fusarium graminearum; conditions: barley, protective spray, 500 ppm, evaluation 5 days after inoculation
[11] = system: Pyricularia oryzae; conditions: rice, protective spray, 250 ppm, evaluation 5 days after inoculation
[12] = system: Cochliobolus miyabeanus; assay: Cochliobolus test (rice)/protective; conditions: protective spray, 250 ppm, evaluation 4 days after inoculation
[13] = system: Microdochium nivale; assay: Microdochium test (wheat)/seed treatment; conditions: dose 50 g/dt (rate 100 [sic]), 21 days at 10° C., counting emerged plants
Description: The test was conducted under greenhouse conditions. Wheat seeds treated with an inventive active compound or a combination of inventive active compounds were sown in 6×6 cm vessels, into a mixture of steamed field soil and sand (1:1). The test compound(s) were dissolved in N-methyl-2-pyrrolidone and diluted to the desired concentration with water. Wheat kernels were inoculated with spores of Microdochium nivale. The infected and ground kernels were distributed between the treated wheat seeds. The seeds were covered with a top layer of steamed field soil and sand (1:1) and incubated in a greenhouse at 10° C. for 21 days. […] In this test, the following inventive compounds show an efficiency of 70% or higher at a dose of 50 g/dt.

[14] = system: Puccinia recondita; assay: Puccinia test (wheat)/seed treatment; conditions: dose 50 g/dt (rate 100 [sic]), inoculated 14 days after sowing, evaluated 9 days later, infected leaf area
Description: The test was conducted under greenhouse conditions. Wheat seeds treated with an inventive active compound or a combination of inventive active compounds were sown in 6×6 cm vessels, into a mixture of steamed field soil and sand (1:1). The test compound(s) were dissolved in N-methyl-2-pyrrolidone and diluted to the desired concentration with water. The wheat grains treated were sown and placed in a greenhouse at 10° C. 14 days after sowing, the plants were inoculated with a spore suspension of Puccinia recondita. The plants were incubated at 20° C. for a further 9 days. […] In this test, the following inventive compounds show an efficiency of 70% or higher at a dose of 50 g/dt: […]

[15] = system: Rhizoctonia solani; assay: Rhizoctonia test (cotton)/seed treatment; conditions: dose 50 g/dt (rate 100 [sic]), 7 days at 20° C., counting emerged and diseased plants
Description: (§3) The test was conducted under greenhouse conditions. Cottonseeds treated with an inventive active compound or a combination of inventive active compounds were sown in 6×6 cm vessels, into a mixture of steamed field soil and sand (1:1). The test compound(s) were dissolved in N-methyl-2-pyrrolidone and diluted to the desired concentration with water. Perlite was inoculated with spores of Rhizoctonia solani. The infected perlite was distributed between the treated cottonseeds. The seeds were covered with a top layer of clay granules and incubated in a greenhouse at 20° C. for 7 days. […] In this test, the following inventive compounds show an efficiency of 70% or higher at a dose of 50 g/dt: […]

[16] = system: Leptosphaeria maculans; assay: Leptosphaeria test (oilseed rape)/seed treatment; conditions: dose 50 g/dt (rate 100 [sic]), 14 days at 10° C. and 7 days at 18° C., counting emerged plants
Description: as §3, with “Cottonseeds” left out, “Leptosphaeria maculans.” for “Rhizoctonia solani.”, “[…].” for “cottonseeds.”, “steamed field soil and sand (1:1)” for “clay granules”, “10° C. for 14 days and at 18°” for “20°”, “g/dt.:” for “g/dt:”

[17] = system: Fusarium culmorum; assay: Fusarium test (wheat)/seed treatment; conditions: dose 50 g/dt (rate 100 [sic]), 14 days at 20° C., counting emerged plants
Description: The test was conducted under greenhouse conditions. Wheat seeds treated with an inventive active compound or a combination of inventive active compounds were sown in 6×6 cm vessels, into a mixture of steamed field soil and sand (1:1). The test compound(s) were dissolved in N-methyl-2-pyrrolidone and diluted to the desired concentration with water. Wheat kernels were inoculated with spores of Fusarium culmorum. The infected and ground kernels were distributed between the treated wheat seeds. The seeds were covered with a top layer of clay granules and incubated in a greenhouse at 20° C. for 14 days. Evaluation was effected by counting the plants which emerged. 0% means an efficacy which corresponds to that of the untreated control, whereas an efficacy of 100% means that all seeds have germinated. In this test, the following inventive compounds show an efficiency of 70% or higher at a dose of 50 g/dt.: […]

[18] = system: Phakopsora pachyrhizi; assay: Phakopsora test (soya beans)/protective; conditions: protective spray, 100 ppm, evaluation 1 days after inoculation (so in the source)

Compound	Efficacy (%) [1] [%]	Efficacy (%) [2] [%]	Efficacy (%) [3] [%]	Efficacy (%) [4] [%]	Efficacy (%) [5] [%]	Efficacy (%) [6] [%]	Efficacy (%) [7] [%]	Efficacy (%) [8] [%]	Efficacy (%) [9] [%]	Efficacy (%) [10] [%]	Efficacy (%) [11] [%]	efficacy [12] [%]	Efficacy (%) [13] [%]	Efficacy (%) [14] [%]	Efficacy (%) [15] [%]	Efficacy (%) [16] [%]	Efficacy (%) [17] [%]	Efficacy (%) [18] [%]
CC(C)(C)C(O)(COc1ccc(Cl)cc1)Cn1ncnc1I (stereo not shown) [Compound 18]	93	100	100	100	100	100	100	100										
OC(Cn1ncnc1I)(c1ccc(Br)cc1)C1(Oc2ccc(F)cc2)CC1 (stereo not shown) [Compound 6]						100		100										
CC(C1CC1)C(O)(Cn1ncnc1I)c1ccc(Cl)cc1 (stereo not shown) [Compound 17]						95		89										
Fc1ccc(C2(Cn3ncnc3I)OC2c2ccccc2Cl)cc1 (stereo not shown) [Compound 1]	78	100	100	97	97	100	100	100	73	75								
OC(Cc1ccc(F)cc1)(Cn1ncnc1I)C1(Cl)CC1 (stereo not shown) [Compound 4]	100	93	100	100	100	100	100	100	89	100	≥ 80	≥ 80						
OC(Cc1ccccc1Cl)(Cn1ncnc1I)C1(Cl)CC1 (stereo not shown) [Compound 3]	100	100	88	100	100	100	100	100	100	100	94	≥ 98	100	100	100	100	100	98
OC(Cn1ncnc1I)(c1ccc(F)cc1F)C1(Oc2ccccc2Cl)CC1 (stereo not shown) [Compound 11]						100		94			93							
CC(C)(C)C(O)(CCc1ccc(Cl)cc1)Cn1ncnc1I (stereo not shown) [Compound 2]	94	100		100	100	100	100	100	90	100								
OC(Cn1ncnc1I)(c1ccc(Cl)cc1)C1(Oc2ccccc2F)CC1 (stereo not shown) [Compound 7]				100	100	100		100										98
OC(Cn1ncnc1I)(c1ccc(Br)cc1)C1(Oc2ccccc2)CC1 (stereo not shown) [Compound 9]				100	100	100		100										
OC(Cc1ccccc1Cl)(Cn1ncnc1I)C1(F)CC1 (stereo not shown) [Compound 13]	100	86	100	100	99	100	100			100								
OC(Cn1ncnc1I)(c1ccc(F)cc1F)C1(Oc2ccc(F)cc2)CC1 (stereo not shown) [Compound 10]				100	100	100		100			97							98
CC1COC(Cn2ncnc2I)(c2ccc(Oc3ccc(Cl)cc3)cc2Cl)O1 (mixture of isomers) [Compound 8]	88	94		100	100	100	100	100										98
Fc1cccc(C2(Cn3ncnc3I)OC2c2ccccc2Cl)c1 (stereo not shown) [Compound 16]						100		90										
